# Laboratory results taken from patent US7807673B2, “2-pyrimidinyl pyrazolopyridine ErbB kinase inhibitors” (GlaxoSmithKline LLC, priority 2005, dated 2010).
# Tests used:
# [1] = test system: Colo205 tumor cell lines; test: Methylene blue growth inhibition assay (cellular Method A); format: cell-based; conditions: Homo sapiens, COLO 205, 72 h, Table 3, Method A methylene blue, 3 days
# Procedure: (§1) Human breast (BT474) and head and neck (HN5) were cultured in low glucose DMEM (Life Technologies 12320-032) containing 10% fetal bovine serum (FBS). Human colon tumor cells (Colo205) were cultured in DMEM (Invitrogen, 10564) containing 10% FBS. The SV40 transformed human mammary epithelial cell line to HB4a was transfected with either human H-ras cDNA (HB4a r4.2) or the human c-ErbB2 cDNA (HB4a c5.2). The HB4a clones were cultured in RPMI containing 10% FBS, insulin ([…]), hydrocortisone ([…]), supplemented with the selection agent hygromycin B ([…]). All lines were grown in a humidified incubator at 37° C. in 95% air, 5% CO2. Cells were harvested using trypsin/EDTA, counted using a haemocytometer, and plated in 100 microliters of the appropriate media, at the following densities, in a 96-well tissue culture plate (Falcon 3075): BT474 10,000 cells/well, HN5 3,000 cells/well. The next day, compounds were diluted in DMEM containing […] gentamicin, at twice the final required concentration, from 10 mM stock solutions in DMSO. 100 microliters/well of these dilutions were added to the 100 microliters of media currently on the cell plates. Medium containing 0.6% DMSO was added to control wells. Compounds diluted in DMEM were added to all cell lines. The final concentration of DMSO in all wells was 0.3%. Cells were returned to the incubator (37° C., […]) for 3 days. Medium was then removed by aspiration. Cell biomass was estimated by staining cells with 90 microliters per well methylene blue (Sigma M9140, 0.5% in 1:1 ethanol:water), and incubation at rt for at least 30 minutes. Stain was removed, and the plates rinsed by immersion in deionized water and air-dried. To release stain from the cells 100 microliters of solubilization solution was added (1% N-lauroyl sarcosine, Sodium salt, Sigma L5125, in PBS), and plates were shaken gently for about 30 minutes. Optical density at 620 nm was measured on a microplate reader. Percent inhibition of cell growth was calculated relative to vehicle treated control wells. Concentration of compound that inhibits 50% of control cell growth (IC50) was interpolated using nonlinear regression (Levenberg-Marquardt) and the equation, y=Vmax*(1−(x/(K+x)))+Y2, where “K” was equal to the IC50. Method B: Celltiter Glo® Growth Inhibition Assays
# [2] = test system: BT474 and HN5 tumor cell lines; test: as above; format: cell-based; conditions: Homo sapiens, BT-474 and HN5, 72 h; Table 2, Method A methylene blue, 3 days; class over BT474 and HN5;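 also: class counts the more potent of the two cell lines (BT474 or HN5)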
# Procedure: as §1
# [3] = molecular target: T1, ErbB2 or EGFR; test: ErbB enzyme substrate phosphorylation assay (HTRF), Method A; format: biochemical; conditions: Table 1, enzyme Method A: substrate mix added first, reaction started with enzyme mix; class over ErbB2 or EGFR
# T1 construct: enzymes purified from a baculovirus expression system
# Procedure: Compounds of the present invention were tested for EGFR, ErbB-2, and ErbB-4 protein tyrosine kinase inhibitory activity in substrate phosphorylation assays using enzymes purified from a baculovirus expression system. Reagent production was conducted essentially as described in Brignola, P. S., et al, (2002) J. Biol. Chem. 277(2): 1576-1585.
# The method measures the ability of the isolated enzyme to catalyse the transfer of the gamma-phosphate from ATP onto the tyrosine residue of a biotinylated synthetic peptide referenced “Peptide C” in Brignola, P. S., et al, (2002) J. Biol. Chem. 277(2):1576-1585. The extent of tyrosine phosphorylation was measured using an anti-phosphotyrosine antibody, and quantified by homogenous time-resolved fluorescence (HTRF).
# Reactions were performed in black 384-well polystyrene flat-bottom plates in a final volume of 20 μl. Assays were performed by adding 10 μl of each of the following solutions, substrate Mix and enzyme mix: The Substrate mix contained 100 mM 3-[N-morpholino]propanesulfonic acid (MOPS) (pH 7.5), 2 mM MnCl2, 20 μM ATP, 0.01% Tween-20, 0.1 mg/mL (BSA), 0.8 uM peptide substrate, and 1 mM dithiothreitol. The enzyme mix contained 100 mM MOPS (pH7.5); 0.01% Tween-20; 0.1 mg/mL BSA, and either 0.8 nM EGFR, 10 nM ErbB2, or 1 nM ErbB4
# During the course of these studies, two separate methods have been used to measure the potency of compounds. In Method A, the substrate mix was added to the compound plates first, then the reaction was started by adding the enzyme mix. In Method B, the enzyme mix was added to the compound plates and the plates were incubated at 20° C. for 1 hour. The reactions were then started by adding the substrate mix.
# After initiating the reaction with either method describe above, the reactions were allowed to proceed for 90 minutes at 20° C. The reactions were then terminated by the addition of 20 μl 100 mM EDTA to each well. 40 μl/well of HTRF detection mix were added to the assay plates. The final concentrations of the detection reagents were: 100 mM HEPES (pH7.5), 0.1 mg/mL BSA, 15 nM streptavidin-labeled allophycocyanin (PerkinElmer), and 1 nM europium-labeled anti-phosphotyrosine antibody (PerkinElmer). Assay plates were left unsealed and were counted in a Wallac Multilabel Counter 1420 (PerkinElmer). […]
# The data for dose responses were plotted as % Inhibition calculated with the data reduction formula 100*(1−(U1−C2)/(C1−C2)) versus concentration of compound where U is the unknown value, C1 is the average control value obtained for 4.76% DMSO, and C2 is the average control value obtained for 0.035 M EDTA. […] The results for each compound were recorded as pIC50s, calculated as follows: pIC50=−Log 10(K)
smiles,measurement,setting,value
"O=C(Cc1ccccc1)Nc1cccc(-c2nn3ccccc3c2-c2ccnc(Nc3ccccc3)n2)c1 [Example 3, 2-Phenyl-N-(3-{3-[2-(phenylamino)-4-pyrimidinyl]pyrazolo[1,5-a]pyridin-2-yl}phenyl)acetamide]",IC50,[1],> 1 µM
same,IC50,[2],> 1 µM
same,Activity (Method),[3],++ (A) (at least one pIC50 measurement greater than 6 against either ErbB2 or EGFR but no measurement greater than pIC50 of 7)
